Data from patent publication US20230190740A1, “AN NK-1 RECEPTOR ANTAGONIST FOR TREATING A DISEASE SELECTING FROM SEPSIS, SEPTIC SHOCK, ACUTE RESPIRATORY DISTRESS SYNDROME (ARDS) OR MULTIPLE ORGAN D[…] (MODS)” (NeRRe Therapeutics Limited, priority 2020, published 2023).

Key:
[1] = tested on: proinflammatory mediators in BALF after intranasal lipopolysaccharide (LPS) challenge; assay: LPS induced neutrophilia model of lung inflammation and injury (mouse model of ARDS): proinflammatory mediators in BALF; format: in vivo, female C57BL6J mice; design: key to IL-1β, 4 hr Statistical significance / TNFα, 24 hr Statistical significance / VEGF-A, 4 hr Statistical significance / MCP-1, 4 hr Statistical significance: * p < 0.05; ** p < 0.01; *** p < 0.001; **** p < 0.0001.; not significant (NS)
Description: (§1) Orvepitant was evaluated in the established mouse model of ARDS; the LPS induced neutrophilia model of lung inflammation and injury.
(§2) The effects of vehicle control or orvepitant (250 mg/kg of orvepitant maleate anhydrous crystalline form [Form 1]), dosed orally 1 hour prior to challenge, on pulmonary inflammation induced by a single intranasal challenge dose (10 ug/kg) of either proinflammatory lipopolysaccharide (LPS), or phosphate-buffered saline (PBS) control, was investigated in female C57BL6J mice. Animals were euthanised at either 4 or 24 hours, and inflammatory cell counts and mediators were assayed in bronchoalveolar lavage (BALF) from all animals.
(§3) Key: Bronchoalveolar lavage fluid (BALF); intranasal (in); lipopolysaccharide (LPS); number of female C57BL6J mice/group (n); per os (po); phosphate buffered saline (PBS).

[2] = tested on: pulmonary inflammation induced by intranasal lipopolysaccharide (LPS) challenge; assay: LPS induced neutrophilia model of lung inflammation and injury (mouse model of ARDS): inflammatory cell counts in BALF; format: in vivo, female C57BL6J mice; design: key to WBC cell counts, 4 hr Statistical significance / Neutrophils cell counts, 4 hr Statistical significance: * p < 0.05; ** p < 0.01; *** p < 0.001; **** p < 0.0001.; not significant (NS)
Description: as §1, §2, §3

[3] = 250 mg/kg per os, BALF at 4 hr after LPS intranasal challenge, vs vehicle/LPS group
[4] = 250 mg/kg per os, BALF at 24 hr after LPS intranasal challenge, vs vehicle/LPS group
[5] = 250 mg/kg per os 1 hour prior to LPS intranasal challenge, BALF at 4 hr, vs vehicle/LPS group
[6] = 250 mg/kg per os 1 hour prior to LPS intranasal challenge, BALF at 24 hr, vs vehicle/LPS group

For `Cc1cc(F)ccc1[C@H]1C[C@@H](N2CCN3C(=O)CC[C@H]3C2)CCN1C(=O)N(C)[C@H](C)c1cc(C(F)(F)F)cc(C(F)(F)F)c1` [orvepitant, 2-(R)-(4-Fluoro-2-methyl-phenyl)-4-(S)-((8aS)-6-oxo-hexahydro-pyrrolo[1,2-a]-pyrazin-2-yl)-piperidine-1-carboxylic acid [1-(R)-(3,5-bis-trifluoromethyl-phenyl)-ethyl]-methylamide], the “effect on range of proinflammatory mediators measured in the BALF” value ([1]; 250 mg/kg orally, at both 4 and 24 hours, vs vehicle treated LPS-challenged animals) was “reduced”, the “IL17A, 4 hr % mean reduction” value [1, 3] was “(36%)” and the “IL17A, 4 hr Statistical significance” value [1, 3] was “**** (**** p < 0.0001.)”. The “IL-1β, 4 hr Statistical significance” value [1, 3] was “NS”, the “IL-6, 4 hr % mean reduction” value [1, 3] was “(44%)” and the “IL-6, 4 hr Statistical significance” value [1, 3] was “** (** p < 0.01)”. The “MCP-1, 4 hr Statistical significance” value [1, 3] was “NS”, the “TNFα, 4 hr % mean reduction” value [1, 3] was “(26%)” and the “TNFα, 4 hr Statistical significance” value [1, 3] was “* (* p < 0.05)”. The “VEGF-A, 4 hr Statistical significance” value [1, 3] was “NS”, the “IL17A, 24 hr % mean reduction” value [1, 4] was “(47%)” and the “IL17A, 24 hr Statistical significance” value [1, 4] was “* (* p < 0.05)”. For the same compound, the “IL-1β, 24 hr % mean reduction” value [1, 4] was “(33%)”, the “IL-6, 24 hr % mean reduction” value [1, 4] was “(39%)” and the “MCP-1, 24 hr % mean reduction” value [1, 4] was “(56%)”. The “MCP-1, 24 hr Statistical significance” value [1, 4] was “** (** p < 0.01)”, the “TGF-β1, 24 hr % mean reduction” value [1, 4] was “(62%)” and the “TGF-β1, 24 hr Statistical significance” value [1, 4] was “*** (*** p < 0.001)”. For the same compound, the “TNFα, 24 hr Statistical significance” value [1, 4] was “NS”, the “VEGF-A, 24 hr % mean reduction” value [1, 4] was “(32%)” and the “effect on inflammatory cell migration” value ([2]; 250 mg/kg orally, ARDS LPS induced neutrophilia model) was “ameliorated”. For the same compound, the “Neutrophils cell counts, 4 hr Statistical significance” value [2, 5] was “NS”, the “WBC cell counts, 4 hr Statistical significance” value [2, 5] was “NS” and the “Neutrophils cell counts, 24 hr Statistical significance” value [2, 6] was “*** (*** p < 0.001)”. For the same compound, the “WBC cell counts, 24 hr Statistical significance” value [2, 6] was “*** (*** p < 0.001)”.
